Laboratory results published in the NIST ThermoML archive (doi:10.1016/j.fluid.2006.09.021).

Details: Liquid, Closed cell (Static) method

S [hydrogen sulfide]
Details	vapor or sublimation pressure [kPa]
223.19 K	167.4
228.2 K	209.1
233.11 K	257.4
238.04 K	313.9
243.04 K	380.1
248.01 K	456.7
252.97 K	544.2
258.01 K	644.5
263 K	757.7
268.02 K	885.7
273.17 K	1032.3
278.24 K	1194.1
283.26 K	1371.1
288.31 K	1566.6
293.1 K	1767.9
293.3 K	1779.5
298.41 K	2022.2
303.08 K	2259.6
313.11 K	2847.2
323.18 K	3540.4
333.17 K	4339.5
343.16 K	5261.2
353.17 K	6319.2
363.16 K	7533
373.15 K	8932.1
